# Tests used:
# [1] = target: T1, human σ2 receptor (TMEM97) (Homo sapiens, UniProt Q5BJF2); assay: [3H]-DTG competition binding, Expi293 membranes
# [2] = target: T1, human σ2 receptor (TMEM97); assay: [3H]-DTG competition binding, Expi293 membranes; remark: listed apart in the source
# [3] = target: T1, human σ2 receptor (TMEM97); assay: biochemical; type: Expi293 membranes
# [4] = target: T1, human σ2 receptor (TMEM97); assay: biochemical; type: Expi293 membranes; details: read-out: % of control remaining
# [5] = 10 nM [3H]-DTG, 50 mM Tris pH 8.0, 37 °C, 90 min
# T1 sequence (Q5BJF2 whole entry): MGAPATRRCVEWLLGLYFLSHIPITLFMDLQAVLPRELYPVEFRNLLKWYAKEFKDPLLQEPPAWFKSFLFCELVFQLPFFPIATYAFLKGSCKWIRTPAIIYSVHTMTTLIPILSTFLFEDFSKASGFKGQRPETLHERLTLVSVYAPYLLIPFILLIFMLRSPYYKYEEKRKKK
Ki [3],remaining activity at 1 µM [4],Compound,further results
0.0147 µM,11.6%,c1ccc(N2CCC(NC[C@@H]3C[C@H]4CCC[C@@H]4O3)CC2)cc1 [ZINC000872109019],
0.00766 µM,11.8%,CC(C)(C)[C@@H]1CCN(C[C@@H](O)CC2(O)CCCCC2)C1 [ZINC000878406056],
0.0673 µM,12.5%,O[C@@]1(CNCc2cccc3c2OCC3)CCc2ccccc21 [ZINC000921927365],
0.0203 µM,12.7%,CC1CC(CN2CC(N3CCN(C(=O)[C@H](C)C4CCCC4)CC3)C2)C1 (stereo partly drawn) [ZINC000941634458],
0.0181 µM,12.9%,CCc1nnsc1C(=O)N[C@H]1[C@@H]2CN(CC3CCCCCC3)C[C@@H]21 [ZINC000960887654],
0.0226 µM,8.4%,Fc1ccccc1[C@H]1CCN(CC#Cc2cccc(Cl)c2)C1 [ZINC001170548029],
0.0024 µM,1.2%,CC(C)CCO[C@@H]1CCN(C[C@H]2CC3(CCCCC3)CO2)C1 [ZINC001196519317],
0.027 µM,4.5%,Fc1c(CN2CCN(C[C@@H]3CCCO3)CC2)ccc(Br)c1Cl [ZINC001237901728],
0.0047 µM,1.1%,O[C@@H](COCc1ccccc1F)CN1CC(Cc2ccccc2C(F)(F)F)C1 [ZINC001254761628],
0.0135 µM,9.7%,C[C@H](C(=O)NC[C@]1(O)CCN(CCC2CCCC2)C1)c1ccccc1 [ZINC001376084945],
0.0052 µM,8%,CC[C@@H](CO)N1CCC(CCc2ccc(F)cc2F)CC1 [ZINC001460312963],
0.00792 µM,10.9%,O[C@@H](CN1CC[C@@H](C2CCCCC2)C1)CC1(O)CCCCC1 [ZINC001460371878],

# Continued, compound first:
Compound,Ki [3],remaining activity at 1 µM [4],further results
c1ccc(CCCN2CCC(c3nnc4ccccn34)CC2)cc1 [Z163048780],,,Ki [1]: > 10 µM
C1=C(c2c[nH]c3ccccc23)CCN(CCCc2ccccc2)C1 [Z295861754],,,Ki [2]: 0.057 µM
C1=C(c2c[nH]c3ncccc23)CCN(CCCc2ccccc2)C1 [Z1241145220],,,"Ki [1, 5]: 0.0037 µM"
OC(CCc1ccccc1)CN1CC=C(c2c[nH]c3ncccc23)CC1 (stereo not drawn) [Z1665845742],,,"Ki [1, 5]: 0.005 µM"
c1ccc(CSc2cncc(N3CCC[C@H](N4CCCC4)CC3)n2)cc1 [ZINC000301801549],0.0196 µM,6.9%,
Cc1ccc([C@H]2CCN(CC3(O)CCC3)C2)c(C)c1 [ZINC000348332392],0.0337 µM,5.2%,
CC(C)(C)[C@@H]1CCN(C[C@@H](O)COCc2ccccc2F)C1 [ZINC000409447221],0.00885 µM,9.7%,
CCOC(=O)[C@@H](CC)N1CCN(C2CCC(C(C)C)CC2)CC1 (stereo partly drawn) [ZINC000440321606],0.00415 µM,11.9%,
C[C@@H](c1ccccc1)[C@@H](O)CN1CCC(c2c[nH]c3ncccc23)CC1 [ZINC000450573233],0.0043 µM,3.6%,
CN(C[C@]1(O)CCN(Cc2ccccc2)C1)C(=O)c1ccc(F)c2ccccc12 [ZINC000480785335],0.0129 µM,9.8%,
Cc1cc(C)c2cc(CN3CCC[C@H](N4CCCC4)CC3)[nH]c2c1 [ZINC000481989921],0.0216 µM,11.7%,
C[C@@H](C(=O)N(C)Cc1cccc(F)c1)N1CC=C(c2c[nH]c3ncccc23)CC1 [ZINC000533478938],0.0345 µM,2.7%,
Cc1ccc(CCC2CCN(C(=O)CN3C[C@@H]4CC[C@@H](O)[C@H]4C3)CC2)cc1 [ZINC000544117725],0.01 µM,0%,
CC1CCC(O)(CN2CC(Cc3ccc(F)c(F)c3)C2)CC1 (stereo not drawn) [ZINC000548355486],0.0024 µM,0.4%,
Cc1cccc(C)c1OC[C@H](O)CN1CC[C@@H](CC2CC2)C1 [ZINC000559413424],0.0105 µM,11.9%,
O[C@@H](COCc1ccccc1Cl)CN1CC[C@H](Cc2ccc(F)cc2)C1 [ZINC000605902355],0.0137 µM,11.5%,
Cc1ccc(CC2CN(CC3(O)CCSCC3)C2)cc1 [ZINC000656714762],0.0678 µM,9.3%,
C1CCC([C@@H]2CCN(CCC3CCOCC3)C2)CC1 [ZINC000661577595],0.00176 µM,6.4%,
CC(C)(NCc1ccc2c(c1)OCCO2)[C@H](O)c1ccccc1 [ZINC000895657866],0.0214 µM,3%,
ZINC450573233,,,"Ki [2, 5]: 0.0043 µM"
ZINC895657866,,,"Ki [2, 5]: 0.0214 µM"

# — article doi:10.1101/2021.04.29.441652v1 (biorxiv, 2021)
